The source of these data is patent EP0435826A1, “Intravenous solutions for epilepsy” (CIBA-GEIGY AG, priority 1989, dated 1991).

The test system of series [1] is Tonische Konvulsionen der Hinterextremitäten. In words: Maximal electroshock test in mice (Elektroschock Test an Mäusen). The format is in vivo. As to conditions: Mäuse; for ED50: Mus musculus, read-out: Schutz vor dem maximalen Elektroschock ED50. The source says: (§1) Beispiel 5: Die akute Schutzwirkung von Carbamazepin und Oxcarbazepin nach intravenöser Verabreichung im Vergleich zur oralen wurde mit Hilfe des maximalen Elektroschocks ermittelt. Die folgenden Methoden wurden verwendet:
(§2) -Elektroschock Test an Mäusen: Tonische Konvulsionen der Hinterextremitäten wurden durch Verabreichung eines Wechselstromes von 50 Hz und 18 mA während 0,2 Sekunden mittels Cornealelektroden ausgelöst. Für jede Dosis und Zeiteinheit wurden 10 Mäuse verwendet; eine Gruppe diente als Kontrolle. Die Anzahl der Mäuse, die keine tonische Konvulsionen der Hinterextremitäten zeigte, wurde für jede Gruppe bestimmt. Die ED₅₀ wurde mit Hilfe der Regressionsanalyse nach der Methode von Spearman und Kärber bestimmt. Die Injektionsvolumina für i.v. Verabreichung sind 5 ml/kg bei Mäusen und 1 ml/kg bei Ratten.
Background: The maximal electroshock test induces tonic seizures with an electrical stimulus.

Series [2] shares this test system. The series can be described thus: Maximal electroshock test in rats (Elektroschock Test an Ratten). It counts as in vivo. To be noted: for ED50: Rattus norvegicus, read-out: Schutz vor dem maximalen Elektroschock ED50.
Source text: as §1
-Elektroschock Test an Ratten: Tonische Konvulsionen der Hinterextremitäten wurden durch Verabreichung eines Wechselstroms von 50 Hz und 36 mA während 0,63 Sekunden mit Hilfe von Cornealelektroden ausgelöst. Es wurden 10 Ratten pro Dosis und Zeiteinheit verwendet; eine Gruppe diente als Kontrolle. Die Anzahl der Ratten, die keine tonische Konvulsionen der Hinterextremitäten aufwiesen, wurde für jede Gruppe bestimmt. Die ED₅₀ wurde mit Hilfe der Regressionsanalyse nach der Methode von Spearman und Kärber berechnet.
as §2
[…] Die ED₅₀-Werte wurden durch Regressionsanalyse aus drei verschiedenen Dosen (10 Ratten pro Dosis) berechnet.

The nature of series [3]: Solubility and properties of aqueous Hydroxypropyl-γ-cyclodextrin injection solutions. To be noted: 22°C, in 40%-iger wässriger Lösung von Hydroxypropyl-γ-cyclodextrin.
Procedure: In 100 ml dieser Lösung werden 1500 mg Carbamazepin durch Rühren bei Raumtemperatur (= 20°C) gelöst.
In 100 ml dieser Lösung werden 400,0 mg fein gemahlenes Oxcarbazepin durch Rühren bei 22°C gelöst.
Where [4] appears, read: iv, 2.5 min, intravenös, 2,5 min.
[5] abbreviates: po, 1 h, oral (suspension in Methocel®), 60 min.
Where [6] appears, read: po, 2 h, oral (suspension in Methocel®), 120 min.
[7] abbreviates: iv, 5 min, intravenös, 5 min before shock.
[8] abbreviates: iv, 0.25 h, intravenös, 15 min before shock.
Setting [9] is: po, 5 min, oral (suspension in Methocel®), 5 min.
[10] abbreviates: po, 0.5 h, oral (suspension in Methocel®), 30 min.
The mark [11] stands for this setting: po, 0.25 h, oral (suspension in Methocel®), 15 min.

As for `NC(=O)N1c2ccccc2C=Cc2ccccc21` [Carbamazepin, 5H-Dibenz[b,f]azepin-5-carboxamid], the ED50 (commonly the dose at which the effect has come halfway, by size or by number of responders) in series [1] (setting [4]) was 2.9 mg/kg; in series [1] (iv, 5 min, intravenös, 5 min) it was 2.6 mg/kg; in series [1] (iv, 0.25 h, intravenös, 15 min), 4.7 mg/kg; in series [1] (iv, 0.5 h, intravenös, 30 min), 6.8 mg/kg; in series [1] (iv, 1 h, intravenös, 60 min) it was 6.5 mg/kg; in series [1] (iv, 2 h, intravenös, 120 min) it was 17.3 mg/kg. The ED50 was determined as 13 mg/kg in series [1] (setting [5]); 27 mg/kg in series [1] (setting [6]); 2.5 mg/kg in series [2] (setting [7]); 2.5 mg/kg in series [2] (setting [8]); 2 mg/kg in series [2] (iv, 0.5 h, intravenös, 30 min); 3.1 mg/kg in series [2] (iv, 1 h, intravenös, 60 min). Also, the ED50 in series [2] (iv, 2 h, intravenös, 120 min) was determined as 4.3 mg/kg; in series [2] (po, 2.5 min, oral (suspension in Methocel®), 2,5 min) it was 60 mg/kg; in series [2] (setting [9]), 60 mg/kg; in series [2] (setting [10]), 9.6 mg/kg; in series [2] (setting [5]) it was 10 mg/kg. Further, the “Schutz vor dem maximalen Elektroschock” value in series [1] (oral (suspension in Methocel®), 2,5 min, bei 60 mg/kg) is listed as 10 % bei 60 mg/kg.
In the case of `NC(=O)N1c2ccccc2CC(=O)c2ccccc21` [Oxcarbazepin, 10,11-Dihydro-10-oxo-5-dibenz[b,f]-acepin-5-carboxamid], in series [3], the Löslichkeit was 37 mg in 10,0 ml. Moreover, the ED50 came out at 4.35 mg/kg in series [1] (setting [4]); 4.35 mg/kg in series [1] (iv, 5 min, intravenös, 5 min); 5 mg/kg in series [1] (iv, 0.25 h, intravenös, 15 min); 7.07 mg/kg in series [1] (iv, 0.5 h, intravenös, 30 min); 10.7 mg/kg in series [1] (iv, 1 h, intravenös, 60 min); 40.4 mg/kg in series [1] (setting [9]). The ED50 worked out at 14.5 mg/kg in series [1] (setting [11]); 15.7 mg/kg in series [1] (setting [10]); 17.8 mg/kg in series [1] (setting [5]); 36.3 mg/kg in series [1] (setting [6]); 3.44 mg/kg in series [2] (setting [7]); 2.5 mg/kg in series [2] (setting [8]). The ED50 in series [2] (iv, 0.5 h, intravenös, 30 min) was 3.44 mg/kg; in series [2] (iv, 1 h, intravenös, 60 min), 4.85 mg/kg; in series [2] (iv, 2 h, intravenös, 120 min) it was 5.7 mg/kg; in series [2] (setting [11]), 12.2 mg/kg; in series [2] (setting [10]), 12.2 mg/kg; in series [2] (setting [5]), 15.8 mg/kg. Further, the ED50 in series [2] (setting [6]) was found to be 16.1 mg/kg. For the same compound, the “Schutz vor dem maximalen Elektroschock ED50” value is 2,35 mg/kg in series [1] (intravenös, 2,5 min, 2.5 min); 5,00 mg/kg in series [1] (intravenös, 15 min); 10,72 mg/kg in series [1] (intravenös, 60 min); 3,44 mg/kg in series [2] (intravenös, 15 min before shock, 15 min). In addition, the “Schutz vor dem maximalen Elektroschock” value in series [1] (intravenös, 120 min, bei 20 mg/kg) is listed as 20 % bei 20 mg/kg; in series [2] (oral (suspension in Methocel®), 5 min, bei 30 mg/kg) it was 20 % bei 30 mg/kg.
